Key:
[1] = molecular target: DNA-dependent protein kinase catalytic subunit (Homo sapiens, UniProt P78527); assay: DNA-PK Enzyme-Linked Immunosorbent Assay
Experimental: On day one, a 96-well plate (ThermoFisher, Cat #: 442404) was coated with GST-p53 (1-101) peptide (purified by Pharmaron, BCS department) by diluting 3 μg of GST-p53 in each well with 0.1 M Na2CO3/NaHCO3 (pH 9.6). The plate was incubated overnight at 4° C. On the second day, the coating buffer was removed, and the plate was washed twice with PBST (1×PBS containing 0.1% Tween-20). The DNA-PK enzyme solution (Invitrogen, #PR9107A; the final DNA-PK concentration: 0.1 μg/mL) was then added. The compounds were serially diluted to the final maximal concentration of 100 nM (3 fold series dilution, a total of 10 doses), and an ATP solution (the final ATP concentration: 20 μM) was added to the plate. Incubate the plate at 25° C. for 1 hour. The plate was washed three times with PBST (1×PBS containing 0.1% Tween-20) and blocked with a solution of PBST and 1% BSA at 4° C. overnight. The third day, the plate was washed four times with PBST (1×PBS containing 0.1% Tween-20). Anti-phospho-p53 primary antibody (cell signaling Technology, #9286, Phospho-p53 (Ser15) (16G8) Mouse mAb) (1/1000) was added to each well. The plate was sealed, incubated 1 h at 37° C., and washed four times with PBST (1×PBS containing 0.1% Tween-20). An HRP-linked secondary antibody (Cell signaling Technology, #7076, Anti-mouse IgG, HRP-linked Antibody) (1/1000) (100 μL) was added to each well. […]

[2] = molecular target: Phosphatidylinositol 4,5-bisphosphate 3-kinase catalytic subunit alpha isoform (Homo sapiens, UniProt P42336); assay: PI3Kα and PI3Kδ Biochemical Assay
Sequence of Phosphatidylinositol 4,5-bisphosphate 3-kinase catalytic subunit alpha isoform (P42336 whole entry, canonical isoform): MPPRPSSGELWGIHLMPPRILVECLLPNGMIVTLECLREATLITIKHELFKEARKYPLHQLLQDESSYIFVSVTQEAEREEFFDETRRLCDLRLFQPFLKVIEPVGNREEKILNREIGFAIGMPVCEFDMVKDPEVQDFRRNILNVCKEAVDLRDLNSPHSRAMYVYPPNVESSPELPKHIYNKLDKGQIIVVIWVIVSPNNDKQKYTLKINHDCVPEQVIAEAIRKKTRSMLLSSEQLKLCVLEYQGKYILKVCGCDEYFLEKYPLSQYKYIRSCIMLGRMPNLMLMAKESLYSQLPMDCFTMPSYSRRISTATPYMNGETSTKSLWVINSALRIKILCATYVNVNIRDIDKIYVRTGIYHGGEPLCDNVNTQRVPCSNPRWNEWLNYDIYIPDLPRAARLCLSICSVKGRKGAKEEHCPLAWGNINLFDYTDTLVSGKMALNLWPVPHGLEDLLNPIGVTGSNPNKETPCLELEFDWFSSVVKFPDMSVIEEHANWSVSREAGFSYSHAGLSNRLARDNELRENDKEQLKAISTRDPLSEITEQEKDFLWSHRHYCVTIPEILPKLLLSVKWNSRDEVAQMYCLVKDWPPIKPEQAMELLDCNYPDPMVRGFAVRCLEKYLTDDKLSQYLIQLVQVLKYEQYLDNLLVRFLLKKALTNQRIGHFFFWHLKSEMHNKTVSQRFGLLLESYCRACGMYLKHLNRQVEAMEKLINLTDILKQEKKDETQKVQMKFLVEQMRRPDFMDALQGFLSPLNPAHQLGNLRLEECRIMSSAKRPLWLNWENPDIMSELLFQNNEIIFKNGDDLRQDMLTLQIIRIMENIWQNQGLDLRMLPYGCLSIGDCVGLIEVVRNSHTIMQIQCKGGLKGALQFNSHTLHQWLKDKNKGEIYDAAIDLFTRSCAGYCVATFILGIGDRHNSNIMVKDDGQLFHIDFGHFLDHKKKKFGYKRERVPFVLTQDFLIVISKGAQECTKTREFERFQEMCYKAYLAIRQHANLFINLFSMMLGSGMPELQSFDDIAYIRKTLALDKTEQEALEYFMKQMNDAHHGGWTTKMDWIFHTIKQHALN
Experimental: (§1) PI3Kα and PI3Kδ Kinase reactions were performed in a 5 μL volume in low-volume 384-well plates. Typically, PerkinElmer model 6008280 plates were used. The 1× kinase reaction buffer consisted of 50 mM HEPES pH 7.5, 3 mM MgCl2, 0.03% CHAPS, 1 mM EGTA, 100 mM NaCl, and 2 mM DTT. PI3Kα (ThermoFisher, #PV4788; the final PI3Kα concentration: 120 ng/mL) or PI3Kδ enzyme solution (ThermoFisher, #PV6451; the final PI3Kδ concentration: 250 ng/mL) was added to the plate, compounds were serially diluted to the final maximal concentration of 100 nM (3 fold series dilution, a total of 10 doses), and the PIP2:3PS (the final concentration: 10 μg/mL) and ATP solution (the final ATP concentration: 10 μM) was added to the 384-well plate. The plate was incubated at 25° C. for 1 hour. ADP-Glo reagent buffer (5 μL) was added to each well. The plate was sealed and incubated for 40 min at 25° C. ADP-Glo detection buffer (10 μL) was added to each well, and the plate was incubated for 40 min at 25° C. and read on a plate reader configured for Luminescence.

[3] = molecular target: T1, Phosphatidylinositol 4,5-bisphosphate 3-kinase catalytic subunit delta isoform (Homo sapiens, UniProt O00329); assay: PI3Kα and PI3Kδ Biochemical Assay
T1 sequence (O00329 whole entry): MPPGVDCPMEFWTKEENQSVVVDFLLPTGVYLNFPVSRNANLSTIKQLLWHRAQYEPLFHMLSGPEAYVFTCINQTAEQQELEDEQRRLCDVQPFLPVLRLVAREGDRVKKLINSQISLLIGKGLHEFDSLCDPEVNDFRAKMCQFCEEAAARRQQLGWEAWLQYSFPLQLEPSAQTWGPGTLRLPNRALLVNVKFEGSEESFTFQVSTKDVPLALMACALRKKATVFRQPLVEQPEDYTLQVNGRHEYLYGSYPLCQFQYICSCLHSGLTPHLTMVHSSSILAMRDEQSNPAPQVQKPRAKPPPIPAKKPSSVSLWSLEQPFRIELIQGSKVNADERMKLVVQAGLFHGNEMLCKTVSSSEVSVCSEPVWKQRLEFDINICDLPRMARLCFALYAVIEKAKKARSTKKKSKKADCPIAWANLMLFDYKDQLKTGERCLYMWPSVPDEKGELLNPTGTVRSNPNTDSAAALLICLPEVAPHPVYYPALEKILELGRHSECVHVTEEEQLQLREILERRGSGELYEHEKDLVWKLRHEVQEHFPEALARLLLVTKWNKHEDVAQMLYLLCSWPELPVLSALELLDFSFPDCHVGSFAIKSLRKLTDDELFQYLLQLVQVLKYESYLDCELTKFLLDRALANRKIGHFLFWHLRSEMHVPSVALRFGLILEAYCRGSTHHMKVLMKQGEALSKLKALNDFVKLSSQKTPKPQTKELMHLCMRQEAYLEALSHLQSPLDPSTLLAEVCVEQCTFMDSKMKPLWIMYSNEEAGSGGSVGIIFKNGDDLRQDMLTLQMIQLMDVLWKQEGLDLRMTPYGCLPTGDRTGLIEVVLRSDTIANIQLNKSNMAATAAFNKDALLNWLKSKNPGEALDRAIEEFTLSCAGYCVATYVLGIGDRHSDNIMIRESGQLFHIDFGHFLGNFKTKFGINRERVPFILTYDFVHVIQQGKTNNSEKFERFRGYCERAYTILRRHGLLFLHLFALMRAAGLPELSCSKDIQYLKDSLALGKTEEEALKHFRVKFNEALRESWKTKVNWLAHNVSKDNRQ
Experimental: as §1

Sequence of DNA-dependent protein kinase catalytic subunit (P78527 whole entry): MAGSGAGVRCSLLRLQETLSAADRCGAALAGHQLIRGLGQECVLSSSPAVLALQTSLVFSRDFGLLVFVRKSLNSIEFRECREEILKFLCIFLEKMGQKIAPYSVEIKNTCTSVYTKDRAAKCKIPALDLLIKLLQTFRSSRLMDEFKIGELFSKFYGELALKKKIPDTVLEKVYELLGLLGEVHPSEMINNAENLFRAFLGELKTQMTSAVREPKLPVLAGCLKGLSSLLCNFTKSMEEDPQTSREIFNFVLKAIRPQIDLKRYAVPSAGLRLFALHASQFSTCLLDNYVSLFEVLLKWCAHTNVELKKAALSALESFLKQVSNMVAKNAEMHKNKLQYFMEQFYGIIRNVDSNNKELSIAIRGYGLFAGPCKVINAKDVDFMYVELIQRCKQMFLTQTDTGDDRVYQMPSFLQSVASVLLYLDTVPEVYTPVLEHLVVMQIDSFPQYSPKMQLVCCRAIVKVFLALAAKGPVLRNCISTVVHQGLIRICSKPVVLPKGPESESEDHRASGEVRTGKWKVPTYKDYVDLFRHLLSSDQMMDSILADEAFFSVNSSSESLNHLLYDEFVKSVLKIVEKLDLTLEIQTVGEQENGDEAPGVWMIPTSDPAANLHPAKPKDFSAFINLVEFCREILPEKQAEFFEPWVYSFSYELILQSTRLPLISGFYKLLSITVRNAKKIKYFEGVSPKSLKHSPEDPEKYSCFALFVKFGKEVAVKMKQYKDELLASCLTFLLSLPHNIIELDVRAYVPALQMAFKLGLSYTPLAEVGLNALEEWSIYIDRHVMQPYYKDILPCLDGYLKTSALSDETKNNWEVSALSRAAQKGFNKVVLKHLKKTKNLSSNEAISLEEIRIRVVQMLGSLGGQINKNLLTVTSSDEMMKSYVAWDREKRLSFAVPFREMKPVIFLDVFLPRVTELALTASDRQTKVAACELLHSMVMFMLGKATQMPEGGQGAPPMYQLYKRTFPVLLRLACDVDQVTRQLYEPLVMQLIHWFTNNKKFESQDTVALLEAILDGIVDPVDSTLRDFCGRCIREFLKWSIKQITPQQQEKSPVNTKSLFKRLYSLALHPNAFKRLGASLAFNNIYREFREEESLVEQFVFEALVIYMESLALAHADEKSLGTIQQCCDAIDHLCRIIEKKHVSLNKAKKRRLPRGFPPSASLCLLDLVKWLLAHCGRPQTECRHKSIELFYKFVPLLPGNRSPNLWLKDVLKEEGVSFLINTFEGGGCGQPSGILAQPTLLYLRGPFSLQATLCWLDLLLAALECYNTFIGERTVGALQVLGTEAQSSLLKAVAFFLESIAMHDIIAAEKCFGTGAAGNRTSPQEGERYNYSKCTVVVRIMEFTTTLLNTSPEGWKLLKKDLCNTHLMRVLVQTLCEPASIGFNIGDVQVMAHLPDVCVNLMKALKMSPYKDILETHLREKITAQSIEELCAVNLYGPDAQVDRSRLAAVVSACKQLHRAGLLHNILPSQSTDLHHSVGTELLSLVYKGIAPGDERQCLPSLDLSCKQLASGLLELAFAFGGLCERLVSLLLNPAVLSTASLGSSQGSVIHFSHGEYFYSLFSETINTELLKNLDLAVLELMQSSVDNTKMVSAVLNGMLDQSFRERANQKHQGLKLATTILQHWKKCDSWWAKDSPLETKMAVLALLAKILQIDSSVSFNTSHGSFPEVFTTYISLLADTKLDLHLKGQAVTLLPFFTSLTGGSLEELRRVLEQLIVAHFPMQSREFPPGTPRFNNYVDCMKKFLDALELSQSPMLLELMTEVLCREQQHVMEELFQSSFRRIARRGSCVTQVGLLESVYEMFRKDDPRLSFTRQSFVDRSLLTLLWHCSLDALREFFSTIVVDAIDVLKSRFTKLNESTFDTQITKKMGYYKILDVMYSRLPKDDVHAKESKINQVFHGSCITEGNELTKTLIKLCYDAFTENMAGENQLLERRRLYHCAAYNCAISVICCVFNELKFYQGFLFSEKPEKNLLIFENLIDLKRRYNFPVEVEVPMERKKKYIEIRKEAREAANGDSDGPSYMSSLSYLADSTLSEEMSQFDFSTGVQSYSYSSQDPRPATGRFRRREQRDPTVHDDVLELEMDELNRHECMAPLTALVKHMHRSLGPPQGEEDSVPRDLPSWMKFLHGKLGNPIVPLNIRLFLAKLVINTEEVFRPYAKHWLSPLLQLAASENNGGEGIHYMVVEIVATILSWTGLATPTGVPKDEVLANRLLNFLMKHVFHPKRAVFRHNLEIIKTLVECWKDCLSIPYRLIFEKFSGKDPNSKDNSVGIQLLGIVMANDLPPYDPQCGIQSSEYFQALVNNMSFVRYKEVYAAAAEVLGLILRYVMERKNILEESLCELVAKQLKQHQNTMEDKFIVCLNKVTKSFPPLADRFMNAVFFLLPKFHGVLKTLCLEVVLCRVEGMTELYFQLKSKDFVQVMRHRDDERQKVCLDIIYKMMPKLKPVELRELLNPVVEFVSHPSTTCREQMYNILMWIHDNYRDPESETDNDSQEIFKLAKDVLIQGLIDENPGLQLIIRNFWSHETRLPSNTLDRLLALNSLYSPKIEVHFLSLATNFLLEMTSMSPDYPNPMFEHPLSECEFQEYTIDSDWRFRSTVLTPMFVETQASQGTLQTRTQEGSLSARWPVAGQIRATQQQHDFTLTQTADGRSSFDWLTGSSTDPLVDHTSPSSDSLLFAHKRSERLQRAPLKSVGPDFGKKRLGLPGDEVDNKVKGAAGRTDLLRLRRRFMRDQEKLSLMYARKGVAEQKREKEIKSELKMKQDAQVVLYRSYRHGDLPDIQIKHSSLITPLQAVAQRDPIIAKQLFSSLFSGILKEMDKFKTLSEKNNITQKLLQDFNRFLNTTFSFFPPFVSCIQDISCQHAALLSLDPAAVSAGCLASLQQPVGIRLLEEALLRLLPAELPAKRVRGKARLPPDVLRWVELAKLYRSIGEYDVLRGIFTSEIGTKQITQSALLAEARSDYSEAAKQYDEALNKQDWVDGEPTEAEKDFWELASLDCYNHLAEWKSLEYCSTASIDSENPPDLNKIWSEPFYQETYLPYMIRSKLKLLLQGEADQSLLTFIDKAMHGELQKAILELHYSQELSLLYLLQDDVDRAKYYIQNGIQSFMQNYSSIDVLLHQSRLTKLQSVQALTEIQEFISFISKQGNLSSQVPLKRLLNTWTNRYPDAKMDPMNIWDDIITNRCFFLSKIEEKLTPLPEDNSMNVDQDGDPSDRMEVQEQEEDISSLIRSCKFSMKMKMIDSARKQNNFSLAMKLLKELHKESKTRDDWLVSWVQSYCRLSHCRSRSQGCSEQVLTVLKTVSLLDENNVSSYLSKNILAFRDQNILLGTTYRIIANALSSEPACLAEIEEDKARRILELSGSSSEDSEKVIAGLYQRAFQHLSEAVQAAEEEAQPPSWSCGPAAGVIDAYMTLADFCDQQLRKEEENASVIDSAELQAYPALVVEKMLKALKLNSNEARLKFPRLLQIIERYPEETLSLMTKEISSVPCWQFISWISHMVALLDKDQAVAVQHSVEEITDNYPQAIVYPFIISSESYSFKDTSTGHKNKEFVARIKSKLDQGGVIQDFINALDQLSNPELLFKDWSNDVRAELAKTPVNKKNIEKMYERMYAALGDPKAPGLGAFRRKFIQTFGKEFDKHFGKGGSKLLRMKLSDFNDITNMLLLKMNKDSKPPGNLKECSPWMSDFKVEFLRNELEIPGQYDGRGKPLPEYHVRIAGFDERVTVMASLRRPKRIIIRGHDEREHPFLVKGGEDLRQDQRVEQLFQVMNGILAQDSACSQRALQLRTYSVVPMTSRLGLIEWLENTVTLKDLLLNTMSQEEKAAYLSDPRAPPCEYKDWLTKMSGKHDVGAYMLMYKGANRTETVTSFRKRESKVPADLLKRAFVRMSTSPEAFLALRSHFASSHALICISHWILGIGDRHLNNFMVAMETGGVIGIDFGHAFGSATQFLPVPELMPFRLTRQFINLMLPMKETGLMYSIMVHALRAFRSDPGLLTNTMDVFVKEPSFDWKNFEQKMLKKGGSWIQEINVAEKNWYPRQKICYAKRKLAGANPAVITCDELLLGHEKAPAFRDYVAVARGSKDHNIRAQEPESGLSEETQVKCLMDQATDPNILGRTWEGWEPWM

Row | SMILES | IC50 [1] | IC50 [2] | IC50 [3]
1 | CC(C)NCCOC1=NCC(C2=CC3C4=C(C=NC3CC2F)N(C)C(=O)C42CCC2)C=C1NS(=O)(=O)C(C)C (stereo unspecified) [US20250268873, Compound 568] | 0.79 nM | 18 nM | 54 nM
2 | CCS(=O)(=O)NC1=CC(C2=CC3C4=C(C=NC3CC2F)N(C)C(=O)C42CCC2)CN=C1OCCNC(C)C (stereo unspecified) [US20250268873, Compound 570] | 0.63 nM | 21 nM | 55 nM
